# Data reported in patent US20130004589A1, “DIVALENT CATION/ANION PAIR CONTAINING COMPOSITIONS AND METHODS FOR TREATING AND/OR PREVENTING ENZYMATIC IRRITATION” (priority 2011, published 2013).
# What was measured:
# trypsin [1] = experiment: EnzChek trypsin inhibition assay of talc mixed with divalent cation salts (Example 3); format: biochemical; conditions: for % synergistic activity relative to hypothetic additive value: Table 3, all materials 0.1% (g/mL)
# Protocol: The objective of the following experiment was to determine whether and to what extent adding a divalent cation to talc inhibited trypsin activity in an in vitro assay. The inhibition of trypsin-induced cleavage of a fluorescent casein peptide was measured using the EnzChek™ protease assay kit, following manufacturer's instructions (EnzChek™ Protease Assay Kits Product Information, Revised; Molecular Probes, Eugene Oreg.). […] Trypsin working solution (Sigma, St. Louis, Mo., unit/mL) was prepared in digestion buffer provided in the assay kit. Stock solution of BODIPY FL casein (trypsin substrate, mg/mL) was prepared by adding 0.2 mL to the substrate vials (provided in kit), and the final substrate working solution (10 microgram/mL) was prepared by dilution in digestion buffer (pH 7.8). Following incubation of the trypsin, with or without the test materials, with the BODIPY fluorescent casein substrate, at room temperature for one hour, fluorescence was measured (excitation 485 nm/emission 530 nm) using a SpectraMax microtiter plate reader (Molecular Devices Corporation, Sunnyvale, Calif.) and Softmax Pro software (Molecular Devices Corporation). Each experiment was performed in three replicates.
# trypsin [2] = experiment: EnzChek trypsin inhibition assay of zinc oxide/acid mixtures and zinc oxide formulations (Example 4); format: biochemical; conditions: Example 4 conclusions
# Protocol: The objective of the following experiment was to determine whether and to what extent adding an acid to a formulation containing zinc oxide had on inhibition of trypsin activity in an in vitro assay. The inhibition of trypsin-induced cleavage of a fluorescent casein peptide was measured using the EnzChek™ protease assay kit, following manufacturer's instructions (EnzChek™ Protease Assay Kits Product Information, Revised; Molecular Probes, Eugene Oreg.). Briefly, mixtures of zinc oxide and acid at different concentrations were prepared in 1×PBS (pH 7.4) and their pH was recorded as listed in the Tables 5-8. Trypsin working solution (Sigma, St. Louis, Mo., unit/mL) was prepared in digestion buffer provided in the assay kit. Stock solution of BODIPY FL casein (trypsin substrate, mg/mL) was prepared by adding 0.2 mL to the substrate vials (provided in kit), and the final substrate working solution (10 microgram/mL) was prepared by dilution in digestion buffer (pH 7.8). Following incubation of the trypsin, with or without the test materials (50 μl), with the BODIPY fluorescent casein substrate, at room temperature for one hour, fluorescence was measured (excitation 485 nm/emission 530 nm) using a SpectraMax microtiter plate reader (Molecular Devices Corporation, Sunnyvale, Calif.) and Softmax Pro software (Molecular Devices Corporation). Each experiment was performed in three replicates.
Structure (SMILES),% synergistic activity relative to hypothetic additive value (trypsin [1]),also measured
CC(=O)[O-].CC(=O)[O-].O.[Ca+2] [Calcium acetate monohydrate],3.10%,
"[O]=[Zn] [ZnO, zinc oxide]",,"trypsin inhibitory activity, result in words (trypsin [2]): minimal protease activity"
[Ca+2].[Cl-].[Cl-] [Calcium chloride],−0.26%,
[Cl-].[Cl-].[Mg+2] [Magnesium chloride],,"trypsin inhibitory activity, result in words (trypsin [1]; Example 3, Table 4 conclusions): moderate to low levels"
